Measurements from PubChem BioAssay (NCI).
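Tested at 5 concentrations; 48 h exposure; 96-well plates; endpoints linearly interpolated, else capped at highest concentration. TGI: concentration producing complete growth inhibition.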

How the values were obtained:
Experiment in all cases: growth of human tumour cells (NCI), 48 h
T-47D breast = tested on: T-47D breast
K-562 leukemia = tested on: K-562 leukemia
HOP-92 NSCLC = tested on: HOP-92 NSCLC
TK-10 renal = tested on: TK-10 renal
UACC-62 melanoma = tested on: UACC-62 melanoma
UO-31 renal = tested on: UO-31 renal
ACHN renal = tested on: ACHN renal
NCI-H226 lung = tested on: NCI-H226 lung
COLO 205 colon = tested on: COLO 205 colon
HOP-62 NSCLC = tested on: HOP-62 NSCLC
KM12 colon = tested on: KM12 colon
NCI-H522 lung = tested on: NCI-H522 lung
NCI-H23 lung = tested on: NCI-H23 lung
A498 renal = tested on: A498 renal
SK-MEL-5 melanoma = tested on: SK-MEL-5 melanoma
SK-MEL-28 melanoma = tested on: SK-MEL-28 melanoma
SNB-75 CNS = tested on: SNB-75 CNS
NCI/ADR-RES ovarian = tested on: NCI/ADR-RES ovarian
OVCAR-8 ovarian = tested on: OVCAR-8 ovarian
RPMI-8226 leukemia = tested on: RPMI-8226 leukemia
NCI-H460 lung = tested on: NCI-H460 lung
HCT-15 colon = tested on: HCT-15 colon
DU-145 prostate = tested on: DU-145 prostate
SF-268 CNS = tested on: SF-268 CNS
MDA-N = tested on: MDA-N
HS 578T breast = tested on: HS 578T breast
SN12C renal = tested on: SN12C renal
SK-OV-3 ovarian = tested on: SK-OV-3 ovarian
OVCAR-4 ovarian = tested on: OVCAR-4 ovarian
IGROV1 ovarian = tested on: IGROV1 ovarian
OVCAR-3 ovarian = tested on: OVCAR-3 ovarian
SK-MEL-2 melanoma = tested on: SK-MEL-2 melanoma
SF-295 CNS = tested on: SF-295 CNS
PC-3 prostate = tested on: PC-3 prostate
UACC-257 melanoma = tested on: UACC-257 melanoma
MALME-3M melanoma = tested on: MALME-3M melanoma
LOX IMVI melanoma = tested on: LOX IMVI melanoma
CAKI-1 renal = tested on: CAKI-1 renal
MDA-MB-231 breast = tested on: MDA-MB-231 breast
EKVX NSCLC = tested on: EKVX NSCLC
MDA-MB-435 = tested on: MDA-MB-435
HL-60(TB) leukemia = tested on: HL-60(TB) leukemia
SF-539 CNS = tested on: SF-539 CNS
HCT-116 colon = tested on: HCT-116 colon
OVCAR-5 ovarian = tested on: OVCAR-5 ovarian
SW-620 colon = tested on: SW-620 colon
MOLT-4 leukemia = tested on: MOLT-4 leukemia
U251 CNS = tested on: U251 CNS
MCF7 breast = tested on: MCF7 breast
HT29 colon = tested on: HT29 colon
RXF 393 renal = tested on: RXF 393 renal
M14 melanoma = tested on: M14 melanoma
786-0 renal = tested on: 786-0 renal
A549 NSCLC = tested on: A549 NSCLC
SNB-19 CNS = tested on: SNB-19 CNS

Measured: TGI

COC(=O)C1CCC(=O)N1CN(C(C)=O)c1cccc(O)c1 (stereo not given)
> 100 µM: all assays above
